Test results reported in patent US20220401464A1, “TREATMENT OF CYR61- AND VEGF-MEDIATED CONDITIONS” (VANDA PHARMACEUTICALS INC., priority 2013, published 2022).
Counter-ions that a name gives are not always drawn.

Tested on: CYR61 gene expression
Experiment: CYR61 gene expression in ARPE-19/HPV16 cells treated for 24 hours, Affymetrix probe sets
Type: cell-based, human
Set-up: amplitude: scale not given here
Conditions: 10 uM; for Fold (CYR61 Downregulation): versus vehicle
Method: In a study leading to embodiments of the invention, a human retinal pigment epithelial cell line (ARPE-19/HPV16) was separately treated with an anthracycline (doxorubicin or daunorubicin), a statin (simvastatin or lovastatin), or vehicle for 24 hours and gene expression for […] probe sets covering 12,490 genes was generated using an Affymetrix instrument. The effects of these compounds on the expression of CYR61 are shown below in Table 1.

Compound	Rank (probe 201289_at)	amplitude (probe 201289_at)	Fold (CYR61 Downregulation) (probe 201289_at)	Rank (probe 210764_s_at)	amplitude (probe 210764_s_at)	Fold (CYR61 Downregulation) (probe 210764_s_at)
COc1cccc2c1C(=O)c1c(O)c3c(c(O)c1C2=O)C[C@@](O)(C(C)=O)C[C@@H]3O[C@H]1C[C@H](N)[C@H](O)[C@H](C)O1 [Daunorubicin HCl]	22278	−1.921	−49.81	22239	−1.8272	−22.15
CCC(C)(C)C(=O)O[C@H]1C[C@@H](C)C=C2C=C[C@H](C)[C@H](CC[C@@H]3C[C@@H](O)CC(=O)O3)[C@H]21 [Simvastatin]	22255	−1.378	−5.428	22262	−1.3931	−5.591
CC(=O)[C@]1(O)Cc2c(O)c3c(c(O)c2[C@@H](O[C@H]2C[C@H](N)[C@H](O)[C@H](C)O2)C1)C(=O)c1ccccc1C3=O [Idarubicin HCl]	22273	−1.899	−38.72	22267	−1.875	−31.13
COc1cccc2c1C(=O)c1c(O)c3c(c(O)c1C2=O)C[C@@](O)(C(=O)CO)C[C@@H]3O[C@H]1C[C@H](N)[C@H](O)[C@H](C)O1 [Doxorubicin HCl]	22282	−1.967	−118.5	22272	−1.925	−52.26
CC[C@H](C)C(=O)O[C@H]1C[C@@H](C)C=C2C=C[C@H](C)[C@H](CC[C@@H]3C[C@@H](O)CC(=O)O3)[C@H]21 [Lovastatin]	22271	−1.412	−5.799	22264	−1.297	−4.687
